Where two headings read alike, the source gives them in different places.
Key:
[1] = test system: Porippa islandica; assay: Dry field farming herbicidal composition test, plant mortality; assay type: in vivo
Source text: (§1) X is % damage by uracil compound (a) of formula 1 at the rate of application of p kg/ha; Y is % damage by conventional herbicidal compound (b) at the rate of application of q kg/ha; and E is the expected damage caused by compounds (a) and (b) at a rate of application of p and q kg/ha.
(§2) The expected activity for a given combination of two herbicides can be calculated using equation 1 above.

[2] = test system: Ludwigia prostrate; assay: Paddy field farming herbicidal composition test, plant mortality; assay type: in vivo
Source text: as §1, §2

[3] = test system: corn
[4] = test system: Digitaria sanguinalis; assay: Dry field farming herbicidal composition test, plant mortality; assay type: in vivo
Source text: as §1, §2

[5] = test system: Monochoria vaginalis; assay: Paddy field farming herbicidal composition test, plant mortality; assay type: in vivo; settings: Pontederia vaginalis, read-out: Monochoria vaginalis mortality (measured value)
Source text: as §1, §2

[6] = test system: Abutilon theophrasti; assay: Dry field farming herbicidal composition test, plant mortality; assay type: in vivo
Source text: as §1, §2

[7] = test system: wheat; assay: Dry field farming herbicidal composition test, plant mortality (crop)
Source text: as §1, §2

[8] = test system: Echinochloa crus; assay: Dry field farming herbicidal composition test, plant mortality; assay type: in vivo
Source text: as §1, §2

[9] = test system: Capsella bursapastoris; assay: as above; assay type: in vivo; settings: in % (unit assumed)
Source text: as §1, §2

[10] = test system: Lamium amplexicaule; assay: as above; assay type: in vivo; settings: in % (unit assumed)
Source text: as §1, §2

[11] = test system: rice plant; assay: Paddy field farming herbicidal composition test, plant mortality (crop)
Source text: as §1, §2

[12] = test system: Aeschynomene indica; assay: Dry field farming herbicidal composition test, plant mortality; assay type: in vivo
Source text: as §1, §2

[13] = test system: Alopecurus aequalis; assay: as above; assay type: in vivo; settings: in % (unit assumed)
Source text: as §1, §2

[14] = Digitaria sanguinalis, read-out: Digitaria sanguinalis mortality, measured value
[15] = Abutilon theophrasti, read-out: Abutilon theophrasti mortality, measured value
[16] = Echinochloa, read-out: Echinochloa crus mortality, measured value
[17] = Aeschynomene indica, read-out: Aeschynomene indica mortality, measured value

## Cc1nn(-c2cc(CC(Cl)C(=O)O)c(Cl)cc2F)c(=O)n1C(F)F (stereo not shown) [Carfentrazone]
[1]; 1 g/ha
  Porippa islandica mortality, measured value: 5
[1]; 2 g/ha
  Porippa islandica mortality, measured value: 15
[1]; 4 g/ha
  Porippa islandica mortality, measured value: 40
[2]; 5 g/ha
  Ludwigia prostrate mortality (measured value): 35%
[2]; 10 g/ha
  Ludwigia prostrate mortality (measured value): 50%
[3]; 1 g/ha
  Corn mortality (measured value): 0
[3]; 2 g/ha
  Corn mortality (measured value): 0
[3]; 4 g/ha
  Corn mortality (measured value): 0
[3]; 5 g/ha
  Corn mortality, measured value: 0
[3]; 10 g/ha
  Corn mortality, measured value: 1
[4]; 1 g/ha
  Digitaria sanguinalis mortality, measured value: 0
[4]; 2 g/ha
  Digitaria sanguinalis mortality, measured value: 0
[4]; 4 g/ha
  Digitaria sanguinalis mortality, measured value: 0
[4]; [14]
  pest or weed control at 5 g/ha: 0%
  pest or weed control at 10 g/ha: 5%
[5]
  pest or weed control at 5 g/ha: 20%
  pest or weed control at 10 g/ha: 45%
[6]; 1 g/ha
  Abutilon theophrasti mortality, measured value: 10
[6]; 2 g/ha
  Abutilon theophrasti mortality, measured value: 25
[6]; 4 g/ha
  Abutilon theophrasti mortality, measured value: 45
[6]; [15]
  pest or weed control at 5 g/ha: 50%
  pest or weed control at 10 g/ha: 75%
[7]; 1 g/ha
  Wheat mortality, measured value: 0
[7]; 2 g/ha
  Wheat mortality, measured value: 0
[7]; 4 g/ha
  Wheat mortality, measured value: 0
[8]; 1 g/ha
  Echinochloa crus mortality, measured value: 0
[8]; 2 g/ha
  Echinochloa crus mortality, measured value: 0
[8]; 4 g/ha
  Echinochloa crus mortality, measured value: 0
[8]; [16]
  pest or weed control at 5 g/ha: 0%
  pest or weed control at 10 g/ha: 5%
[9]; 1 g/ha
  Capsella bursapastoris mortality, measured value: 0
[9]; 2 g/ha
  Capsella bursapastoris mortality, measured value: 15
[9]; 4 g/ha
  Capsella bursapastoris mortality, measured value: 35
[10]; 1 g/ha
  Lamium amplexicaule mortality, measured value: 5
[10]; 2 g/ha
  Lamium amplexicaule mortality, measured value: 20
[10]; 4 g/ha
  Lamium amplexicaule mortality, measured value: 40
[11]; 5 g/ha
  Rice plant mortality (measured value): 0
[11]; 10 g/ha
  Rice plant mortality (measured value): 0
[12]; 1 g/ha
  Aeschynomene indica mortality, measured value: 5
[12]; 2 g/ha
  Aeschynomene indica mortality, measured value: 20
[12]; 4 g/ha
  Aeschynomene indica mortality, measured value: 40
[12]; [17]
  pest or weed control at 5 g/ha: 45%
  pest or weed control at 10 g/ha: 70%
[13]; 1 g/ha
  Alopecurus aequalis mortality, measured value: 0
[13]; 2 g/ha
  Alopecurus aequalis mortality, measured value: 0
[13]; 4 g/ha
  Alopecurus aequalis mortality, measured value: 0
